Laboratory results reported in patent US8637510B2, “Morpholinothiazoles as alpha 7 positive allosteric modulators” (Janssen Pharmaceutica NV, priority 2009, dated 2014).

Key:
human alpha 7-wt nAChR = biological target: T1, human alpha 7-wt nAChR (Homo sapiens, UniProt P36544); test: Ca2+ flux imaging (FDSS) (Protocol B); assay type: cell-based; conditions: for EC50: potentiation of 100 μM choline, compounds 0.01 μM to 30 μM, read-out: a7-PAM-G_[33]_pEC50 pEC50 (converted); for Emax: read-out: a7-PAM-G_[33]_Eff_Curve_FI % Efficacy
T1 construct: expressed in transfected cells
Procedure, shortened: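 Fluo-4AM-loaded cells expressing human α7-wt nAChR, in HBSS with 10 mM HEPES, 5 mM CaCl2, 0.1% BSA, received compound (0.01–30 μM), typically 10 min before 100 μM choline, with calcium flux read in real time. Potentiation is relative to choline alone (100%); EC50 from sigmoidal curves.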

[1] = biological target: T2, human alpha 7-wt nAChR-expressing GH4C1 cells (Homo sapiens, UniProt P36544); test: Patch-clamp current recording (whole-cell voltage-clamp, PAM type classification); assay type: cell-based; design: key: Type 0 compounds minimally change the effect size of the current elicited by 1 mM choline.; Type 1 compounds enhance the effect size of the current elicited by 1 mM choline but minimally alter the kinetics of the receptor.; Type 2 compounds enhance the effect size of the current elicited by 1 mM choline while reducing the rate and/or the extent of desensitization.; Type 3 compounds enhance the effect size of the current elicited by 1 mM choline. When tested at higher concentrations up to 10 μM they completely inhibit desensitization; Type 4 compounds allow for an initial desensitization of the receptor followed by a re-opening of the receptor during agonist application; conditions: 1 mM choline
T2 construct: expressed in transfected cells
Method: The compounds of the present invention are classified as type 1-4, based on qualitative kinetic properties, as determined by whole-cell voltage-clamp recordings. This classification is based on the effect of an alpha 7 PAM compound, as described hereinbefore, on the signal elicited by an agonist application. In particular, said agonist is choline at a concentration of 1 mM. In a preferred experimental setting, said alpha 7 PAM compound and choline are simultaneously applied to the cell, as described hereinafter. Desensitization is defined as the closure of the receptor upon activation during the application of the agonist in whole-cell voltage-clamp electrophysiology measurements seen as the reduction of the […] current after initial activation by the agonist.
The definition of the PAM types 1-4 is described hereinafter: • Type 0 compounds minimally change the effect size of the current elicited by 1 mM choline. • Type 1 compounds enhance the effect size of the current elicited by 1 mM choline but minimally alter the kinetics of the receptor. In particular, the rate and the extent of desensitization and of deactivation of the receptor elicited by the agonist is not affected. The compound-modulated response to 1 mM choline, therefore, is close to a linear scaling of the 1 mM choline response in absence of the alpha 7 PAM compound. • Type 2 compounds enhance the effect size of the current elicited by 1 mM choline while reducing the rate and/or the extent of desensitization. Deactivation of the receptor is generally unaffected. • Type 3 compounds enhance the effect size of the current elicited by 1 mM choline. […] Deactivation of the receptor may be slowed down • Type 4 compounds allow for an initial desensitization of the receptor followed by a re-opening of the receptor during agonist application. At low-potency concentrations of the alpha 7 PAM compound, the agonist-induced activation, which is followed by desensitization, can still be separated from the compound-induced re-opening as an initial inward current-maximum. At higher potency concentrations of the alpha 7 PAM compound, the re-opening occurs faster than the closure due to desensitization so that the initial current-maximum disappears.
A compound was considered to have interesting PAM-like activity when the potentiation of the peak current was at least 200% compared to the control choline response (=100%). Such compounds are classified as belonging to a particular PAM type in the Experimental Part. Compounds not meeting the condition are not classified as belonging to a particular PAM-type.
The compounds also have a potentiating effect on the response to choline when measured by whole-cell patch clamp electrophysiology in GH4C1 cells stably over-expressing the human wild-type alpha 7 receptor.
Patch-clamp recording from mammalian cells has provided a powerful means of assessing the function of membrane-bound proteins thought to be subunits of ligand-gated ion channels. Activation of such proteins by endogenous or exogenous ligands cause opening of a pore associated with the receptor through which ions flow down their electrochemical gradient. In the case of the human alpha 7-wt nAChR-expressing GH4C1 recombinant cell line the preferential permeability to calcium of this receptor means that calcium flows into the cell upon activation by ACh, choline and other nicotinic ligands giving rise to a calcium current. Since this receptor rapidly desensitizes in the presence of agonist it is important that an application system is used which is capable of very rapid switching of solutions (<100 ms) to prevent partial or full desensitisation of receptor responses coincident with the time of agonist application. Consequently, a second convenient technique to assess the enhancement of nicotinic efficacy is a patch-clamp recording from human alpha 7-wt nAChR-expressing GH4C1 cells coupled with a rapid-application system. […]

[2] = efficacy of 100 μM choline defined as 100% in the absence of a PAM

T1 sequence (P36544 23-502): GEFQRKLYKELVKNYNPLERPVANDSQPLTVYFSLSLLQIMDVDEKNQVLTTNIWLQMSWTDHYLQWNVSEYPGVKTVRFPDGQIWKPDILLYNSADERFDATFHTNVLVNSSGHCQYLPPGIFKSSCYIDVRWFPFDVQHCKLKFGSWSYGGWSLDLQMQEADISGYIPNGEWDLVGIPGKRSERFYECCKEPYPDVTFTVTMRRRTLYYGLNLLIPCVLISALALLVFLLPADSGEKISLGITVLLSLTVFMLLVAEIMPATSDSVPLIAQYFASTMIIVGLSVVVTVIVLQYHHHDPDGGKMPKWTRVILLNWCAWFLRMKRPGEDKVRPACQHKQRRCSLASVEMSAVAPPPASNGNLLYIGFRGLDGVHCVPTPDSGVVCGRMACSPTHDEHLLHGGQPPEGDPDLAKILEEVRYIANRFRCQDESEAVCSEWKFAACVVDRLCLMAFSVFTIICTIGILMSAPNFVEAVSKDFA
T2 sequence (P36544 23-502): as above

Compound	a7-PAM-G_[33]_Eff_Curve_FI % Efficacy (human alpha 7-wt nAChR; [2]) [%]	EC50 (human alpha 7-wt nAChR) [nM]	PAM_Type PAM type [1]	Emax (human alpha 7-wt nAChR; [2]) [%]	melting point [°C]
Cc1cc(-c2sc(N3CC(C)OC(C(F)(F)F)C3)nc2CNC(=O)CC2CC2)cc(C)n1 (racemic) [Compound 202, N-[[5-(2,6-dimethyl-4-pyridinyl)-2-[2-methyl-6-(trifluoromethyl)-4-morpholinyl]-4-thiazolyl]methyl]-cyclopropaneacetamide]	735	21.4	2		
Cc1cc(-c2sc(N3CCOC(C)C3)nc2CNC(=O)c2conc2C)cc(C)n1 (single isomer, unassigned) [Compound 69, N-[[5-(2,6-dimethyl-4-pyridinyl)-2-[(2S*)-2-methyl-4-morpholinyl]-4-thiazolyl]methyl]-3-methyl-4-isoxazolecarboxamide]		955	2	645	
Cc1cc(-c2sc(N3CCOC(C)C3)nc2CNC(=O)c2conc2C)cc(C)n1 (single isomer, unassigned) [Compound 73, N-[[5-(2,6-dimethyl-4-pyridinyl)-2-[(2R*)-2-methyl-4-morpholinyl]-4-thiazolyl]methyl]-3-methyl-4-isoxazolecarboxamide]		724	2		
Cc1cc(-c2sc(N3C[C@@H](C)O[C@@H](C)C3)nc2CNC(=O)c2oc(C)nc2C)cc(C)n1 [Compound 159, N-[[2-[(2R,6S)-2,6-dimethyl-4-morpholinyl]-5-(2,6-dimethyl-4-pyridinyl)-4-thiazolyl]methyl]-2,4-dimethyl-5-oxazolecarboxamide]		9770		704	193
Cc1cc(-c2sc(N3C[C@@H](C)O[C@@H](C)C3)nc2CNC(=O)c2cnn(C)c2C)cc(C)n1 [Compound 160, N-[[2-[(2R,6S)-2,6-dimethyl-4-morpholinyl]-5-(2,6-dimethyl-4-pyridinyl)-4-thiazolyl]methyl]-1,5-dimethyl-1H-pyrazole-4-carboxamide]		8130			169
Cc1cc(-c2sc(N3C[C@@H](C)O[C@@H](C)C3)nc2CNC(=O)c2ncoc2C)cc(C)n1 [Compound 161, N-[[2-[(2R,6S)-2,6-dimethyl-4-morpholinyl]-5-(2,6-dimethyl-4-pyridinyl)-4-thiazolyl]methyl]-5-methyl-4-oxazolecarboxamide]		5130		509	201
Cc1cc(-c2sc(N3C[C@@H](C)O[C@@H](C)C3)nc2CNC(=O)c2c(C)noc2C(F)(F)F)cc(C)n1 [Compound 163, N-[[2-[(2R,6S)-2,6-dimethyl-4-morpholinyl]-5-(2,6-dimethyl-4-pyridinyl)-4-thiazolyl]methyl]-3-methyl-5-(trifluoromethyl)-4-isoxazolecarboxamide]				142	176
Cc1cc(-c2sc(N3C[C@@H](C)O[C@@H](C)C3)nc2CNC(=O)c2csc(C)c2C)cc(C)n1 [Compound 164, N-[[2-[(2R,6S)-2,6-dimethyl-4-morpholinyl]-5-(2,6-dimethyl-4-pyridinyl)-4-thiazolyl]methyl]-4,5-dimethyl-3-thiophenecarboxamide]		166			200
Cc1cc(-c2sc(N3C[C@@H](C)O[C@@H](C)C3)nc2CNC(=O)c2onc(C)c2C)cc(C)n1 [Compound 171, N-[[2-[(2R,6S)-2,6-dimethyl-4-morpholinyl]-5-(2,6-dimethyl-4-pyridinyl)-4-thiazolyl]methyl]-3,4-dimethyl-5-isoxazolecarboxamide]		1620		669	192
Cc1cc(-c2sc(N3C[C@@H](C)O[C@@H](C)C3)nc2CNC(=O)c2nn(C)cc2C)cc(C)n1 [Compound 172, N-[[2-[(2R,6S)-2,6-dimethyl-4-morpholinyl]-5-(2,6-dimethyl-4-pyridinyl)-4-thiazolyl]methyl]-1,4-dimethyl-1H-pyrazole-3-carboxamide]		2630		292	165
Cc1cc(-c2sc(N3C[C@@H](C)O[C@@H](C)C3)nc2CNC(=O)c2nocc2C)cc(C)n1 [Compound 174, N-[[2-[(2R,6S)-2,6-dimethyl-4-morpholinyl]-5-(2,6-dimethyl-4-pyridinyl)-4-thiazolyl]methyl]-4-methyl-3-isoxazolecarboxamide]		537		956	145
Cc1cc(-c2sc(N3C[C@@H](C)O[C@@H](C)C3)nc2CNC(=O)c2ccon2)cc(C)n1 [Compound 180, N-[[2-[(2R,6S)-2,6-dimethyl-4-morpholinyl]-5-(2,6-dimethyl-4-pyridinyl)-4-thiazolyl]methyl]-3-isoxazolecarboxamide]		1910			179
Cc1cc(-c2sc(N3CCOC[C@@H]3C)nc2CNC(=O)c2ccc(F)cc2C)cc(C)n1 [Compound 184, N-[[5-(2,6-dimethyl-4-pyridinyl)-2-[(3S)-3-methyl-4-morpholinyl]-4-thiazolyl]methyl]-4-fluoro-2-methyl-benzamide]		562		974	156
Cc1cc(-c2sc(N3CCOC[C@@H]3C)nc2CNC(=O)CC2CC2)cc(C)n1 [Compound 187, N-[[5-(2,6-dimethyl-4-pyridinyl)-2-[(3S)-3-methyl-4-morpholinyl]-4-thiazolyl]methyl]-cyclopropaneacetamide]		5250		994	138
Cc1cc(-c2sc(N3CCOC[C@@H]3C)nc2CNC(=O)CC(C)C)cc(C)n1 [Compound 189, N-[[5-(2,6-dimethyl-4-pyridinyl)-2-[(3S)-3-methyl-4-morpholinyl]-4-thiazolyl]methyl]-3-methyl-butanamide]		1510			151
Cc1cc(C(=O)NCc2nc(N3C[C@@H](C)O[C@@H](C)C3)sc2-c2ccnc(C(F)(F)F)c2)no1 [Compound 199, N-[[2-[(2R,6S)-2,6-dimethyl-4-morpholinyl]-5-[2-(trifluoromethyl)-4-pyridinyl]-4-thiazolyl]methyl]-5-methyl-3-isoxazolecarboxamide]		219			228
Cc1cc(-c2sc(N3CC4CCC(C3)O4)nc2CNC(=O)c2cc(C)on2)cc(C)n1 [Compound 210, N-[[5-(2,6-dimethyl-4-pyridinyl)-2-(8-oxa-3-azabicyclo[3.2.1]oct-3-y1)-4-thiazolyl]methyl]-5-methyl-3-isoxazolecarboxamide]		3980		632	206
Cc1cc(-c2sc(N3CC4CCC(C3)O4)nc2CNC(=O)c2conc2C)cc(C)n1 [Compound 211, N-[[5-(2,6-dimethyl-4-pyridinyl)-2-(8-oxa-3-azabicyclo[3.2.1]oct-3-yl)-4-thiazolyl]methyl]-3-methyl-4-isoxazolecarboxamide]		4900		246	94
